# Laboratory results published in US9358300B2, “Transfection reagents” (LIFE TECHNOLOGIES CORPORATION, priority 1998, dated 2016).
# System: Primary, passaged, normal human fibroblasts (NHFs)
# Experiment: Transfection of normal human fibroblasts with pCMV SPORT-β-gal DNA, β-gal activity
# Type: cell-based
# Conditions: 40 ng pCMV SPORT-β-gal DNA and 0.1 or 0.2 μl lipid per well, ND = no detectable activity
# Description: The cationic lipid reagents and DNA were diluted separately into 25µl aliquots of serum-free DMEM, containing 1% NEAA. For LIPOFECTAMINE® PLUS, 7 14 μl of PLUS reagent was added to the DNA, mixed, and incubated for 15 minutes at room temperature. The diluted DNA was combined with the diluted lipid and incubated at room temperature for at least 15 minutes to allow the DNA and the lipid to form complexes. Following this incubation the complexes were added directly into the culture medium dropwise and mixed by rocking the culture plate back and forth. The cells were further incubated at 37° C. for a total of 24 hours to allow expression of the lacZ transgene encoded by the reporter plasmid, pCMV SPORT-β-gal. At 24 hours post-transfection, the growth medium and transfection complexes were removed from the wells, and the cells in each well were rinsed briefly with 1 ml of D-PBS (Dulbecco's PBS, Life Technologies, Rockville, Md.). The cells in each well were lysed by the addition of 0.15 to 2.0 ml of […]. The plates were frozen at −80° C. for a minimum of 2 hours, and thawed at room temperature or 37° C. The thawed cell lysates were cleared by centrifugation and the supernatants were assayed for β-gal activity using the enzymatic substrate ONPG. The concentration of total protein in cell lysates was also determined using a Bradford assay (Bio-Rad Laboratories, Hercules Calif.). β-gal activity in transfected cell extracts was calculated against a standard curve and expressed as ng β-gal per surface area of tissue culture plate (ng/cm2) to reflect activity per transfection, or as ng β-gal per μg of total protein (ng/μg) to reflect specific activity.
# Primary, passaged, normal human fibroblasts (NHFs) were plated in 96-well plates at a density of 1.6×104 cells per well and transfected the following day. Cells in each well were transfected with 40 ng pCMV SPORT-β-gal DNA and 0.1 or 0.2 μl lipid.
# The DNA and lipid were diluted separately into 10 μl of DMEM. The DNA was either used alone or pre-mixed with PLUS, insulin, transferrin, or an integrin-targeting peptide prior to complexing with the lipid. After 15 minutes of complexing, the DNA-lipid was added to cells. Cells were assayed for p-gal activity as described above.
substance,measurement,setting,value
"N^1,N^4-dioleyl-N^1,N^4-di-[2-hydroxy-3-(N-spermine carboxamido)-aminopropyl]-diaminobutane [Compound of Formula VII]","ACTIVITY (β-gal), DNA and PLUS",DNA pre-mixed with PLUS Reagent,637.9 ng/βgal/cm^2
same,"ACTIVITY (β-gal), DNA and INSULIN",DNA pre-mixed with insulin,195.7 ng/βgal/cm^2
same,"ACTIVITY (β-gal), DNA and INTEGRIN-TARGETING PRPTIDE",DNA pre-mixed with integrin-targeting peptide,587.9 ng/βgal/cm^2
same,"ACTIVITY (β-gal), DNA and TRANSFERRIN",DNA pre-mixed with transferrin,21.7 ng/βgal/cm^2
same,"ACTIVITY (β-gal), DNA",DNA used alone,29.4 ng/βgal/cm^2
